Test results: patent US20260356856A1, “KRAS G12S AND G12C INHIBITORS” (MIRATI THERAPEUTICS, INC., priority 2023, published 2026)

How the values were obtained:
[1] = biological target: T1, KRas-mediated phosphorylation of ERK in A549 cells (Homo sapiens, UniProt P01116, G12S); assay: Inhibition of KRas-mediated phosphorylation of ERK (HTRF), A549 cells; format: cell-based; settings: HTRF pERK, 3 h incubation
T1 construct: pERK HTRF read-out

[2] = biological target: T2, KRas-mediated phosphorylation of ERK in MKN1 cells (Homo sapiens, UniProt P01116); assay: Inhibition of KRas-mediated phosphorylation of ERK (HTRF), MKN1 cells; format: cell-based; settings: MKN1 cells (KRas WT); HTRF pERK; 3 h incubation
T2 construct: pERK HTRF read-out
Experimental: Inhibition of KRas Phosphorylation of ERK (HTRF) by Exemplary Compounds of Formula (Ia) or (Ib)
Cisbio HTRF Advanced pERK Assay Catalog #64AERPEH • Cells: MKN1, PSN1 • Procedure: • 1. Day 1: Seed 6,000 cells/well −25 μl/well in 384-well white solid bottom plate; RPM1_10% FBS. Incubate overnight at 37 °C/5% CO2. • 2.

[3] = biological target: T3, KRas-mediated phosphorylation of ERK in H358 cells (Homo sapiens, UniProt P01116, G12C); assay: Inhibition of KRas-mediated phosphorylation of ERK (HTRF), H358 cells; format: cell-based; settings: HTRF pERK, 3 h incubation
T3 construct: pERK HTRF read-out

KRas G12S = biological target: T4, KRas G12S (Homo sapiens, UniProt P01116, G12S); assay: KRas binding assay, TR-FRET displacement of Cy5 labelled tracer; settings: 60-minute incubation at room temperature, 1% DMSO, pH 7.5
T4 construct: Biotinylated KRas (corresponding to amino acids 1-169, produced at Accelegan Inc.); biotin (biotinylated); purchased Accelegan Inc
Outline: (§1)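 Final conditions: 1% DMSO, pH 7.5 HEPES buffer, 60 min, room temperature. Protein: biotin-KRas 1-169 with terbium streptavidin. Output: IC50, four-parameter fit of POC.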

KRas G12C = biological target: T5, KRas G12C (Homo sapiens, UniProt P01116, G12C); assay: as above; settings: 60-minute incubation at room temperature, 1% DMSO, pH 7.5
T5 construct: Biotinylated KRas (corresponding to amino acids 1-169, produced at Accelegan Inc.); biotin (biotinylated); purchased Accelegan Inc
Outline: as §1

KRas WT = biological target: T6, KRas WT (Homo sapiens, UniProt P01116); assay: as above; settings: 60-minute incubation at room temperature, 1% DMSO, pH 7.5
T6 construct: Biotinylated KRas (corresponding to amino acids 1-169, produced at Accelegan Inc.); biotin (biotinylated); purchased Accelegan Inc
Outline: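 IC50 came from fitting POC values with a four-parameter equation. Signal was read after one hour at room temperature. Protein was biotin-tagged KRas 1-169 captured by terbium streptavidin, with compound in 1% DMSO (final).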

T6 sequence (P01116 1-169 isoform P01116-2): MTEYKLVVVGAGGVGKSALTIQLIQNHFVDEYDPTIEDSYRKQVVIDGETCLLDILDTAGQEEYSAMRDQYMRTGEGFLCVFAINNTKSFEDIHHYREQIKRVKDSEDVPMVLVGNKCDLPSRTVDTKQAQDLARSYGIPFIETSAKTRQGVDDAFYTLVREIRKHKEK
T2 sequence (P01116 1-188 isoform P01116-2): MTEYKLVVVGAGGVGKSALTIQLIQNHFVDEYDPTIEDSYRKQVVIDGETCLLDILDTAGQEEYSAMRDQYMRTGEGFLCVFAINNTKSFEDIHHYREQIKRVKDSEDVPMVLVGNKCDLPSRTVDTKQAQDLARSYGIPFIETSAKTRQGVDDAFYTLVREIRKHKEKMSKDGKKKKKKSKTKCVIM
T4 sequence (P01116 1-169 isoform P01116-2 G12S): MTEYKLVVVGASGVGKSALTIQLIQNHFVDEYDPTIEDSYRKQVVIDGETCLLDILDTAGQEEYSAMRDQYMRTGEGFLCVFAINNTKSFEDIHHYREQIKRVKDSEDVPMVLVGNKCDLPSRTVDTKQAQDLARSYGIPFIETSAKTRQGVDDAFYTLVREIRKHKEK
T3 sequence (P01116 1-188 isoform P01116-2 G12C): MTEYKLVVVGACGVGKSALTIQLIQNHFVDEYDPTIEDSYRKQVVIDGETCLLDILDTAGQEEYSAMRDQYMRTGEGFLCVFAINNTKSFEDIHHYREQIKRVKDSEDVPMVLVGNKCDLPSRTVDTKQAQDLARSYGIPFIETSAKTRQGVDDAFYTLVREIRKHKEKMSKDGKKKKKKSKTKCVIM
T5 sequence (P01116 1-169 isoform P01116-2 G12C): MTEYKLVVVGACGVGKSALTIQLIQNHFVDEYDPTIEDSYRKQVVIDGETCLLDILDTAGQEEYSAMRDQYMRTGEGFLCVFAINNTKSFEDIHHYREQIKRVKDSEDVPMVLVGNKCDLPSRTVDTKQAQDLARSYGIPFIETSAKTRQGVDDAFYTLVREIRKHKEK
T1 sequence (P01116 1-188 isoform P01116-2 G12S): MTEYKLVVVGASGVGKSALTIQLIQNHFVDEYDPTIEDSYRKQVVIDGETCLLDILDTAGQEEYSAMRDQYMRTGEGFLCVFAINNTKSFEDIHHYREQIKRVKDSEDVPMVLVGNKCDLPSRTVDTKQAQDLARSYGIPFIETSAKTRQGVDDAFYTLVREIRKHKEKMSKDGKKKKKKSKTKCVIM

| SMILES | IC50 [1] [nM] | IC50 [2] [nM] | IC50 [3] [nM] | IC50 (KRas G12S) [nM] | IC50 (KRas G12C) [nM] | IC50 (KRas WT) [nM] |
| --- | --- | --- | --- | --- | --- | --- |
| Cc1ccn(C(=O)C2C[C@@H]3CN(c4nc(OC[C@@]56CCCN5C[C@H](F)C6)nc5c(F)c(-c6ccc(F)c7sc(N)c(C#N)c67)c(Cl)cc45)C[C@@H]3C2)n1 (stereo partly drawn) [Example 180, 2-amino-4-(6-chloro-8-fluoro-2-(((2R,7aS)-2-fluorotetrahydro-1H-pyrrolizin-7a(5H)-yl)methoxy)-4-((3aR,6aS)-5-(3-methyl-1H-pyrazole-1-carbonyl)hexahydrocyclopenta[c]pyrrol-2 (1H)-yl)quinazolin-7-yl)-7-fluorobenzo[b]thiophene-3-carbonitrile] | 27 | 441 | 232 | 4 | 26 | 67 |
| CCc1c(F)ccc2cc(O)cc(-c3ncc4c(N5CCC(C(=O)n6nc(C)c(C)c6C)CC5)nc(OC[C@@]56CCCN5C[C@H](F)C6)nc4c3F)c12 [Example 73, (1-(7-(8-ethyl-7-fluoro-3-hydroxynaphthalen-1-yl)-8-fluoro-2-(((2R,7aS)-2-fluorotetrahydro-1H-pyrrolizin-7a(5H)-yl)methoxy)pyrido[4,3-d]pyrimidin-4-yl)piperidin-4-yl)(3,4,5-trimethyl-1H-pyrazol-1-yl)methanone] | 8480 | 5570 | 4500 | 2960 | 888 | 1080 |
| Cc1ccn(C(=O)CCN(C)c2nc(OC[C@@]34CCCN3C[C@H](F)C4)nc3c(F)c(-c4ccc(F)c5sc(N)c(C#N)c45)c(Cl)cc23)n1 [Example 176, 2-amino-4-(6-chloro-8-fluoro-2-(((2R,7aS)-2-fluorotetrahydro-1H-pyrrolizin-7a(5H)-yl)methoxy)-4-(methyl(3-(3-methyl-1H-pyrazol-1-yl)-3-oxopropyl)amino)quinazolin-7-yl)-7-fluorobenzo[b]thiophene-3-carbonitrile] | 388 | 250 | 295 | 5 | 3 | 12 |
| CN(CCCC(=O)Nc1ccncc1)c1nc(OC[C@@]23CCCN2C[C@H](F)C3)nc2c(F)c(-c3ccc(F)c4sc(N)c(C#N)c34)c(Cl)cc12 [Example 269, 4-((7-(2-amino-3-cyano-7-fluorobenzo[b]thiophen-4-yl)-6-chloro-8-fluoro-2-(((2R,7aS)-2-fluorotetrahydro-1H-pyrrolizin-7a(5H)-yl)methoxy)quinazolin-4-yl)(methyl)amino)-N-(pyridin-4-yl) butanamide] | 1180 | 388 | 411 | 6 | 4 | 9 |
| CN(C=O)C(=O)CCCN(C)c1nc(OC[C@@]23CCCN2C[C@H](F)C3)nc2c(F)c(-c3ccc(F)c4sc(N)c(C#N)c34)c(Cl)cc12 [Example 235, 4-((7-(2-amino-3-cyano-7-fluorobenzo[b]thiophen-4-yl)-6-chloro-8-fluoro-2-(((2R,7aS)-2-fluorotetrahydro-1H-pyrrolizin-7a(5H)-yl)methoxy)quinazolin-4-yl)(methyl)amino)-N-formyl-N-methylbutanamide] | 7 | 82 | 60 | 2 | 3 | 6 |
| CN(C)C(=O)N(C)C(=O)CCCN(C)c1nc(OC[C@@]23CCCN2C[C@H](F)C3)nc2c(F)c(-c3ccc(F)c4sc(N)c(C#N)c34)c(Cl)cc12 [Example 239, 4-((7-(2-amino-3-cyano-7-fluorobenzo[b]thiophen-4-yl)-6-chloro-8-fluoro-2-(((2R,7aS)-2-fluorotetrahydro-1H-pyrrolizin-7a(5H)-yl)methoxy)quinazolin-4-yl)(methyl)amino)-N-(dimethylcarbamoyl)-N-methylbutanamide] | 669 | 171 | 114 | 8 | 6 | 11 |
| CC(=O)N(C)C(=O)C(C)CCN(C)c1nc(OC[C@@]23CCCN2C[C@H](F)C3)nc2c(F)c(-c3ccc(F)c4sc(N)c(C#N)c34)c(Cl)cc12 (stereo partly drawn) [Example 304, N-acetyl-4-((7-(2-amino-3-cyano-7-fluorobenzo[b]thiophen-4-yl)-6-chloro-8-fluoro-2-(((2R,7aS)-2-fluorotetrahydro-1H-pyrrolizin-7a(5H)-yl)methoxy)quinazolin-4-yl)(methyl)amino)-N,2-dimethylbutanamide] | 3 | 60 | 3 | 4 | 5 | 12 |
| CCc1c(F)ccc2cc(O)cc(-c3ncc4c(N5CCCCC(C(=O)n6ccc(C)n6)CC5)nc(OC[C@@]56CCCN5C/C(=C\F)C6)nc4c3F)c12 (stereo partly drawn) [Example 124, (1-(7-(8-ethyl-7-fluoro-3-hydroxynaphthalen-1-yl)-8-fluoro-2-(((S,Z)-2-(fluoromethylene)tetrahydro-1H-pyrrolizin-7a(5H)-yl)methoxy)pyrido[4,3-d]pyrimidin-4-yl)azocan-4-yl)(3-methyl-1H-pyrazol-1-yl)methanone] | 7 | 93 | 25 | 3 | 4 | 103 |
| CC(=O)N(C)C(=O)CCCN(C)c1nc(OC[C@@]23CCCN2C[C@H](F)C3)nc2c(F)c(-c3ccc(F)c4sc(N)c(C#N)c34)c(Cl)cc12 (atropisomer, axis not shown; (aS)) [Example 260, N-acetyl-4-(((S)-7-(2-amino-3-cyano-7-fluorobenzo[b]thiophen-4-yl)-6-chloro-8-fluoro-2-(((2R,7aS)-2-fluorotetrahydro-1H-pyrrolizin-7a(5H)-yl)methoxy)quinazolin-4-yl)(methyl)amino)-N-methylbutanamide] | 6 | 36 | 18 | < 2 | < 2 | 4 |
| N#Cc1c(N)sc2c(F)ccc(-c3c(Cl)cc4c(N5CCC(C(=O)n6cccn6)CC5)nc(OC[C@@]56CCCN5C[C@H](F)C6)nc4c3F)c12 [Example 129, 4-(4-(4-(1H-pyrazole-1-carbonyl)piperidin-1-yl)-6-chloro-8-fluoro-2-(((2R,7aS)-2-fluorotetrahydro-1H-pyrrolizin-7a(5H)-yl)methoxy)quinazolin-7-yl)-2-amino-7-fluorobenzo[b]thiophene-3-carbonitrile] | 4 | 139 | 26 | 5 | 7 | 8 |
| Cc1ccn(C(=O)CCN(C)c2cc(O[C@@H](C)[C@@H]3CCCN3C)nc(-c3noc([C@]4(C)CCCc5sc(N)c(C#N)c54)n3)n2)n1 [Example 320, (R)-2-amino-4-methyl-4-(3-(4-(methyl (3-(3-methyl-1H-pyrazol-1-yl)-3-oxopropyl)amino)-6-((S)-1-((S)-1-methylpyrrolidin-2-yl)ethoxy)pyrimidin-2-yl)-1,2,4-oxadiazol-5-yl)-4,5,6,7-tetrahydrobenzo[b]thiophene-3-carbonitrile] | 621 | > 10000 | > 10000 | 179 | 131 | 264 |
| CC(=O)N(C)C(=O)C1CCN(c2nc(OC[C@@]34CCCN3C[C@H](F)C4)nc3c(F)c(-c4ccc(F)c5sc(N)c(C#N)c45)c(Cl)cc23)CC1 [Example 253, N-acetyl-1-(7-(2-amino-3-cyano-7-fluorobenzo[b]thiophen-4-yl)-6-chloro-8-fluoro-2-(((2R,7aS)-2-fluorotetrahydro-1H-pyrrolizin-7a(5H)-yl)methoxy)quinazolin-4-yl)-N-methylpiperidine-4-carboxamide] | 14 | 37 | 61 | 8 | 8 | 10 |
| CCc1c(F)ccc2cc(O)cc(-c3ncc4c(N5CCOCC(C(=O)n6ccc(C)n6)C5)nc(OC[C@@]56CCCN5C[C@H](F)C6)nc4c3F)c12 (stereo partly drawn) [Example 77, (4-(7-(8-ethyl-7-fluoro-3-hydroxynaphthalen-1-yl)-8-fluoro-2-(((2R,7aS)-2-fluorotetrahydro-1H-pyrrolizin-7a(5H)-yl)methoxy)pyrido[4,3-d]pyrimidin-4-yl)-1,4-oxazepan-6-yl)(3-methyl-1H-pyrazol-1-yl)methanone] | > 10000 | 4560 | 1360 | 87 | 159 | 161 |
| Cc1ccn(C(=O)C2CCN(c3nc(OC[C@@]45CCCN4C[C@H](F)C5)nc4c(F)c(-c5ccc(F)c6sc(N)c(C#N)c56)c(Cl)cc34)C2)n1 (stereo partly drawn) [Example 139, 2-amino-4-(6-chloro-8-fluoro-2-(((2R,7aS)-2-fluorotetrahydro-1H-pyrrolizin-7a(5H)-yl)methoxy)-4-(3-(3-methyl-1H-pyrazole-1-carbonyl)pyrrolidin-1-yl)quinazolin-7-yl)-7-fluorobenzo[b]thiophene-3-carbonitrile] | 46 | 1210 | 412 | 5 | 5 | 16 |
